Laboratory results reported in patent US11739100B2, “2,3-dihydro-1h-imidazo{1,2-a}pyrimidin-5-one and this 1,2,3,4-tetrahydropyrimido{1,2-a}pyrimidin-6-one derivatives comprising a substituted morpholine, preparation thereof and pharmaceutical use thereof” (SANOFI, priority 2012, dated 2023).

Molecular target: T1, recombinant Vps34 (Homo sapiens, UniProt Q8NEB9)
T1 construct: purchased Invitrogen PV5126
Assay: Phosphorylation of phosphatidylinositol (PI) by Vps34 in vitro, ADP detected by TR-FRET (HTRF Transcreener ADP)
Assay type: biochemical
Details: 10 μM ATP, 55 μg/ml PI, approximately 3 nM Vps34, 1 hour at ambient temperature; absolute IC50, mean of two independent experiments; read-out: IC50 activity range

T1 sequence (Q8NEB9 whole entry): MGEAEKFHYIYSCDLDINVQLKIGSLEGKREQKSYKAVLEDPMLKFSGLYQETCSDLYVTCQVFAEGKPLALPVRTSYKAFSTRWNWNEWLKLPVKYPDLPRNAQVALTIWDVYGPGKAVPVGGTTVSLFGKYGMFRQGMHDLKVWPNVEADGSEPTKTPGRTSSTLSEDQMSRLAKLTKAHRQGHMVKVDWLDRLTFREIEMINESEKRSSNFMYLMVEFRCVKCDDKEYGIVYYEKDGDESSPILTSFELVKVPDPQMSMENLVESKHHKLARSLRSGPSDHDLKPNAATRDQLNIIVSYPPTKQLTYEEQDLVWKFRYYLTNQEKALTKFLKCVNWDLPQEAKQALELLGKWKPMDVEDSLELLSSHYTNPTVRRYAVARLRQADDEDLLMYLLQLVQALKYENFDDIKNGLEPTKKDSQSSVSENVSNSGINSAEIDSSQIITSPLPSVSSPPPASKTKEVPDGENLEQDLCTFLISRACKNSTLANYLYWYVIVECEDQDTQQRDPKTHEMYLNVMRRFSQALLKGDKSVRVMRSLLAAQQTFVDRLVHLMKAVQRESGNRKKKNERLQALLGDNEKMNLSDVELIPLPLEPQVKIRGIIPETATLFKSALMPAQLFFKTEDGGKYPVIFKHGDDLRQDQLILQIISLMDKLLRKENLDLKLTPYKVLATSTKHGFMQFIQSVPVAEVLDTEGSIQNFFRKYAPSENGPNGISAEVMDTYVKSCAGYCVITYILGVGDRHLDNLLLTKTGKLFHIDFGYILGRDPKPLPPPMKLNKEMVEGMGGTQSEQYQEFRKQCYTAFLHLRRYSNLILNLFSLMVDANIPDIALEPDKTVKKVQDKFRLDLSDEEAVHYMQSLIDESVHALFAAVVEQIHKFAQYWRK

Cc1nc(CN2c3nc(N4CC5CCC(C4)O5)cc(=O)n3CC[C@H]2C(F)(F)F)no1 [Example 270, (S)-9-(5-Methyl-[1,2,4]oxadiazol-3-yl-methyl)-2-(8-oxa-3-azabicyclo[3.2.1]oct-3-yl)-8-trifluoromethyl-6,7,8,9-tetrahydro-pyrimido[1,2-a]-pyrimidin-4-one]
IC50: 10 to 100 nM

C[C@@H]1COCCN1c1cc(=O)n2c(n1)N(c1ccc(C(F)(F)F)nc1)[C@H](C(F)(F)F)CC2 [Example 81, (S)-2-((R)-3-Methyl-morpholin-4-yl)-8-trifluoromethyl-9-(6-trifluoromethylpyridin-3-yl)-6,7,8,9-tetrahydro-pyrimido[1,2-a]-pyrimidin-4-one]
IC50: < 10 nM

C[C@@H]1COCCN1c1cc(=O)n2c(n1)N(Cc1ccnn1C(F)F)C(C)(C)CC2 [Example 72, 9-(2-Difluoromethyl-2H-pyrazol-3-yl-methyl)-8,8-dimethyl-2-((R)-3-methyl-morpholin-4-yl)-6,7,8,9-tetrahydro-pyrimido[1,2-a]-pyrimidin-4-one]
IC50: 10 to 100 nM

COCCN1c2nc(N3CCOC[C@H]3C)cc(=O)n2CC[C@H]1C(F)(F)F [Example 90, (S)-9-(2-Methoxy-ethyl)-2-((R)-3-methyl-morpholin-4-yl)-8-trifluoromethyl-6,7,8,9-tetrahydro-pyrimido[1,2-a]-pyrimidin-4-one]
IC50: < 10 nM

C[C@@H]1COCCN1c1cc(=O)n2c(n1)N(Cc1cccnc1F)[C@H](C(F)(F)F)CC2 [Example 221, (S)-9-(2-Fluoropyridin-3-ylmethyl)-2-((R)-3-methylmorpholin-4-yl)-8-trifluoromethyl-6,7,8,9-tetrahydro-pyrimido[1,2-a]-pyrimidin-4-one]
IC50: < 10 nM

C[C@@H]1COCCN1c1nc2n(c(=O)c1F)C[C@@](C)(C(F)(F)F)N2CC(=O)C1CC1 [Example 187, (S)-1-(2-Cyclopropyl-2-oxoethyl)-6-fluoro-2-methyl-7-((R)-3-methylmorpholin-4-yl)-2-trifluoromethyl-2,3-dihydro-1H-imidazo[1,2-a]-pyrimidin-5-one]
IC50: < 10 nM

C[C@@H]1COCCN1c1cc(=O)n2c(n1)N(Cc1cnco1)[C@](C)(C(F)(F)F)C2 [Example 182, (S)-2-Methyl-7-((R)-3-methylmorpholin-4-yl)-1-oxazol-5-ylmethyl-2-trifluoromethyl-2,3-dihydro-1H-imidazo[1,2-a]-pyrimidin-5-one]
IC50: 10 to 100 nM

C[C@@H]1COCCN1c1cc(=O)n2c(n1)N(Cc1ccccn1)[C@H](C(F)(F)F)CC2 [Example 218, (S)-2-((R)-3-Methyl-morpholin-4-yl)-9-pyridin-2-ylmethyl-8-trifluoromethyl-6,7,8,9-tetrahydro-pyrimido[1,2-a]-pyrimidin-4-one]
IC50: < 10 nM

Cc1nocc1CN1c2nc(N3CCOC[C@H]3C)cc(=O)n2CC[C@H]1C(F)(F)F [Example 12, (S)-9-(3-Methyl-isoxazol-4-ylmethyl)-2-((R)-3-methyl-morpholin-4-yl)-8-trifluoromethyl-6,7,8,9-tetrahydro-pyrimido[1,2-a]-pyrimidin-4-one]
IC50: < 10 nM

CC(C)C(=O)CN1c2nc(N3CCOC[C@H]3C)cc(=O)n2CC[C@@]1(C)C(F)(F)F [Example 252, (S)-8-Methyl-2-((R)-3-methylmorpholin-4-yl)-9-(3-methyl-2-oxo-butyl)-8-trifluoromethyl-6,7,8,9-tetrahydro-pyrimido[1,2-a]-pyrimidin-4-one]
IC50: < 10 nM

C[C@@H]1COCCN1c1cc(=O)n2c(n1)N(Cc1ccno1)CC[C@@H]2C(F)(F)F [Example 105, (R)-9-Isoxazol-5-yl-methyl-2-((R)-3-methylmorpholin-4-yl)-6-trifluoromethyl-6,7,8,9-tetrahydro-pyrimido[1,2-a]-pyrimidin-4-one]
IC50: 10 to 100 nM

C[C@@H]1COCCN1c1nc2n(c(=O)c1F)CC[C@@H](C(F)(F)F)N2Cc1noc(C2CC2)n1 [Example 247, (S)-9-(5-Cyclopropyl-[1,2,4]oxadiazol-3-yl-methyl)-3-fluoro-2-((R)-3-methyl-morpholin-4-yl)-8-trifluoromethyl-6,7,8,9-tetrahydro-pyrimido[1,2-a]-pyrimidin-4-one]
IC50: < 10 nM

C[C@@H]1COCCN1c1cc(=O)n2c(n1)N(CC1CCCCO1)[C@H](C(F)(F)F)CC2 (single isomer, unassigned) [Example 138]
IC50: < 10 nM

C[C@@H]1COCCN1c1cc(=O)n2c(n1)N(CC(=O)c1ccnc(F)c1)[C@H](C(F)(F)F)CC2 [Example 25, (S)-9-[2-(2-Fluoro-pyridin-4-yl)-2-oxo-ethyl]-2-((R)-3-methyl-morpholin-4-yl)-8-trifluoromethyl-6,7,8,9-tetrahydro-pyrimido[1,2-a]-pyrimidin-4-one]
IC50: < 10 nM

Cc1noc(CN2c3nc(N4CCOC[C@H]4C)cc(=O)n3CC[C@H]2C(F)(F)F)n1 [Example 17, (S)-2-((R)-3-Methyl-morpholin-4-yl)-9-(3-methyl-[1,2,4]oxadiazol-5-yl-methyl)-8-trifluoromethyl-6,7,8,9-tetrahydro-pyrimido[1,2-a]-pyrimidin-4-one]
IC50: < 10 nM

C[C@@H]1COC[C@@H](C)N1c1cc(=O)n2c(n1)N(Cc1cnc(Cl)s1)[C@H](C(F)(F)F)CC2 [Example 312, (S)-9-(2-Chloro-thiazol-5-ylmethyl)-2-((3R,5R)-3,5-dimethyl-morpholin-4-yl)-8-trifluoromethyl-6,7,8,9-tetrahydro-pyrimido[1,2-a]-pyrimidin-4-one]
IC50: 10 to 100 nM

C[C@@H]1COCCN1c1nc2n(c(=O)c1F)CC[C@@H](C(F)(F)F)N2CC(=O)N1CCCCC1 [Example 237, (S)-3-Fluoro-2-((R)-3-methylmorpholin-4-yl)-9-(2-oxo-2-piperidin-1-ylethyl)-8-trifluoromethyl-6,7,8,9-tetrahydro-pyrimido[1,2-a]-pyrimidin-4-one]
IC50: < 10 nM

CC(C)C(=O)CN1c2nc(N3CCOC[C@@H]3C)c(F)c(=O)n2CC[C@H]1C(F)(F)F [Example 278, (S)-3-Fluoro-2-((S)-3-methylmorpholin-4-yl)-9-(3-methyl-2-oxo-butyl)-8-trifluoromethyl-6,7,8,9-tetrahydro-pyrimido[1,2-a]-pyrimidin-4-one]
IC50: > 100 nM

Cc1cc(C(=O)CN2c3nc(N4CCOC[C@H]4C)c(F)c(=O)n3CC[C@H]2C(F)(F)F)no1 [Example 294, (S)-3-Fluoro-9-[2-(5-methylisoxazol-3-yl)-2-oxoethyl]-2-((R)-3-methylmorpholin-4-yl)-8-trifluoromethyl-6,7,8,9-tetrahydro-pyrimido[1,2-a]-pyrimidin-4-one]
IC50: < 10 nM

CCC(C)C(=O)CN1c2nc(N3CCOC[C@H]3C)cc(=O)n2CC[C@H]1C(F)(F)F (stereo partly drawn) [Example 291, (S)-2-((R)-3-Methyl-morpholin-4-yl)-9-(3-methyl-2-oxo-pentyl)-8-trifluoromethyl-6,7,8,9-tetrahydro-pyrimido[1,2-a]-pyrimidin-4-one]
IC50: < 10 nM

O=c1cc(N2CCOCC2CO)nc2n1CC[C@@H](C(F)(F)F)N2Cc1ccc(Cl)s1 (single isomer, unassigned) [Example 177]
IC50: 10 to 100 nM

C[C@@H]1COCCN1c1cc(=O)n2c(n1)N(CC(C)(C)O)CC[C@@H]2C(F)(F)F [Example 113, (R)-9-(2-Hydroxy-2-methylpropyl)-2-((R)-3-methylmorpholin-4-yl)-6-trifluoromethyl-6,7,8,9-tetrahydro-pyrimido[1,2-a]-pyrimidin-4-one]
IC50: 10 to 100 nM

C[C@@H]1COCCN1c1nc2n(c(=O)c1F)CC[C@@H](C(F)(F)F)N2CC(=O)c1cccnc1 [Example 50, (S)-3-Fluoro-2-((R)-3-methylmorpholin-4-yl)-9-(2-oxo-2-pyridin-3-ylethyl)-8-trifluoromethyl-6,7,8,9-tetrahydro-pyrimido[1,2-a]-pyrimidin-4-one]
IC50: < 10 nM

C[C@@H]1COCCN1c1cc(=O)n2c(n1)N(CC(O)c1cccnc1)[C@H](C(F)(F)F)CC2 (single isomer, unassigned) [Example 209]
IC50: < 10 nM

C[C@@H]1COCCN1c1cc(=O)n2c(n1)N(CC(=O)C1CCCCC1)[C@H](C(F)(F)F)CC2 [Example 258, (S)-9-(2-Cyclohexyl-2-oxoethyl)-2-((R)-3-methylmorpholin-4-yl)-8-trifluoromethyl-6,7,8,9-tetrahydro-pyrimido[1,2-a]-pyrimidin-4-one]
IC50: < 10 nM

C[C@@H]1COCCN1c1cc(=O)n2c(n1)N(Cc1nc(C(F)(F)F)no1)[C@H](C(F)(F)F)CC2 [Example 292, (S)-2-((R)-3-Methyl-morpholin-4-yl)-8-trifluoromethyl-9-(3-trifluoromethyl-[1,2,4]oxadiazol-5-yl-methyl)-6,7,8,9-tetrahydro-pyrimido[1,2-a]-pyrimidin-4-one]
IC50: < 10 nM

Cc1noc(CN2CC[C@H](C(F)(F)F)n3c2nc(N2CCOC[C@H]2C)c(F)c3=O)n1 [Example 149, (R)-3-Fluoro-2-((R)-3-methylmorpholin-4-yl)-9-(3-methyl-[1,2,4]oxadiazol-5-yl-methyl)-6-trifluoromethyl-6,7,8,9-tetrahydro-pyrimido[1,2-a]-pyrimidin-4-one]
IC50: < 10 nM

O=c1cc(N2CC3CCC(C2)O3)nc2n1CC[C@@H](C(F)(F)F)N2Cc1ccn(C(F)F)n1 [Example 167, (S)-9-(1-Difluoromethyl-1H-pyrazol-3-ylmethyl)-2-(8-oxa-3-aza-bicyclo[3.2.1]oct-3-yl)-8-trifluoromethyl-6,7,8,9-tetrahydro-pyrimido[1,2-a]-pyrimidin-4-one]
IC50: 10 to 100 nM

C[C@@H]1COCCN1c1cc(=O)n2c(n1)N(CC(=O)c1cccnc1)CC[C@@H]2C(F)(F)F [Example 141, (R)-2-((R)-3-Methyl-morpholin-4-yl)-9-(2-oxo-2-pyridin-3-yl-ethyl)-6-trifluoromethyl-6,7,8,9-tetrahydro-pyrimido[1,2-a]-pyrimidin-4-one]
IC50: < 10 nM

C[C@@H]1COCCN1c1nc2n(c(=O)c1F)CC[C@@H](C(F)(F)F)N2Cc1ccno1 [Example 46, (S)-3-Fluoro-9-isoxazol-5-ylmethyl-2-((R)-3-methyl-morpholin-4-yl)-8-trifluoromethyl-6,7,8,9-tetrahydro-pyrimido[1,2-a]-pyrimidin-4-one]
IC50: < 10 nM
